# Legend:
# Sour Lemon = test: Test 12 over-the-top application, postemergence; assay type: in vivo; conditions: 26 days after treatment, scale 0-100
# Description: The object of this test was to evaluate the safety of sour lemon to the over-the-top application of Compound I and control of lantana (Lantana camara) and trumpetcreeper (Campsis radicans). Plants were sprayed postemergence with Compound I formulated in a non-phytotoxic solvent. Treated plants were visually rated 26 days after treatment and compared with appropriate controls. Injury ratings were based on the scale of 0 to 100, where 0 indicates no effect, 20 indicates minimal effect and 100 indicates complete control.
# Pineapple = test: Test 8 postemergence safety to pineapple, turfs and weed control; assay type: in vivo; conditions: scale 0-100
# Description: (§1) The object of this test was to evaluate the compound of this invention for postemergence safety to pineapple, turfs and weed control. Climax timothy, Kentucky bluegrass, forage fescue, Kentucky fescue, bermudagrass, bentgrass, annual bluegrass, bahiagrass, purple nutsedge, yellow nutsedge, large crabgrass, perennial ryegrass, annual ryegrass, galium and pineapple were sprayed postemergence with the compound in a non-phytotoxic solvent. Plants were visually rated 36 days after treatment (DAT). Injury ratings were based on the scale of 0 to 100 where 0 = no effect, 20 = minimal effect and 100 = complete control.
# Forage fescue = test: as above; assay type: in vivo; conditions: scale 0-100
# Description: as §1
# Bermudagrass = test: as above; assay type: in vivo; conditions: scale 0-100
# Description: as §1
# Purple nutsedge = test: as above; assay type: in vivo; conditions: scale 0-100
# Description: as §1
# Yellow nutsedge = test: as above; assay type: in vivo; conditions: scale 0-100
# Description: as §1
# Annual ryegrass = test: as above; assay type: in vivo; conditions: scale 0-100
# Description: as §1
# Climax timothy = test: as above; assay type: in vivo; conditions: scale 0-100
# Description: as §1
# Annual bluegrass = test: as above; assay type: in vivo; conditions: scale 0-100
# Description: as §1
# Bahiagrass = test: as above; assay type: in vivo; conditions: scale 0-100
# Description: as §1
# Galium = test: as above; assay type: in vivo; conditions: scale 0-100
# Description: as §1
# Perennial ryegrass = test: as above; assay type: in vivo; conditions: scale 0-100
# Description: as §1
# Kentucky fescue = test: as above; assay type: in vivo; conditions: scale 0-100
# Description: as §1
# Kentucky bluegrass = test: as above; assay type: in vivo; conditions: scale 0-100
# Description: as §1
# Large crabgrass = test: as above; assay type: in vivo; conditions: scale 0-100
# Description: as §1
# Common ragweed = test: Test 11 windowsill flats, postemergence; assay type: in vivo, Ambrosia artemisiifolia; conditions: Postemergence 32 g/ha, 0.25% X-77 surfactant, scale 0-100
# Description: (§2) Budded citrus seedlings were planted in 30-liter plastic pots which were also seeded with sandbur, guineagrass, narrowleaf panicum, common ragweed, yellow nutsedge, purple nutsedge and bindweed. Compound I was applied preemergence and postemergence to the weeds. Treatments were sprayed to simulate the trunk-to-trunk herbicide application method used in some citrus groves. The compound was also applied postemergence to weeds grown in windowsill flats. The flats were filled with planting medium and seeded with morningglory (Ipomoea spp.). purple nutsedge (Cyperus rotundus), pigweed (Amaranthus spp.), bindweed (Convolvulus spp.), narrowleaf panicum (Panicum maximum), common ragweed (Ambrosia artemisiifolia), sandbur (Cenchrus echinatus), itchgrass (Rottboellia exaltata), johnsongrass (Sorghum halepense), guineagrass (Panicum maximum), smooth crabgrass (Digitaria ischaemum), broadleaf signalgrass (Brachiaria platyphylla), bermudagrass (Cynodon dactylon), goosegrass (Eleusine indica), large crabgrass (Digitaria sanguinalis) and yellow nutsedge (Cyperus esculentus).
# (§3) The compound was formulated and sprayed with 0.25% X-77 surfactant in water. Plants were visually rated 21 and 29 days after treatment and compared with appropriate controls. Injury ratings were based on the scale of 0 to 100, where 0 indicates no effect, 20 indicates minimum effect and 100 indicates complete control. […]
# Johnsongrass = test: Test 11 windowsill flats, postemergence; assay type: in vivo, Sorghum halepense; conditions: Postemergence 32 g/ha, 0.25% X-77 surfactant, scale 0-100
# Description: as §2, §3
# Salsoa kali = test: Test 1 greenhouse, postemergence; assay type: in vivo; conditions: 21 days, scale 0-100
# Description: (§4) Seeds of Bromus tectorum, Kochia scoparia, Salsoa kali, Avena fatua, Convolvulus arvensis, Secale cereale, Setaria viridis and Triticum aestivum were placed in 26-cm plastic pans containing a pasteurized sandy loam soil (pH 6.5, 1% organic matter). Plantings were maintained in the greenhouse for 18-28 days at which time the postemergence treatments were applied using a nonphytotoxic solvent as the carrier for the herbicide. The preemergence segment of the test was seeded immediately before herbicide application using Bromus tectorum, Kochia scoparia, Polygonum convolvulus, Salsoa kali, Avena fatua, Convolvulus arvensis, Secale cereale, Setaria viridis, Aegilops cylindrica, Amaranthus retroflexus, Chenopodium album, Hordeum vulgare, Triticum aestivum, Sorghum bicolor, and Zea mays. All treatments were maintained in the greenhouse for an additional 21 days at which time visual assessment of weed control was determined using a scale of 0 to 100 for each species where 0 represented no control and 100 represented complete control.
# Kochia scoparia = test: Test 1 greenhouse, postemergence; assay type: in vivo; conditions: 21 days, scale 0-100
# Description: as §4
# Setaria viridis = test: Test 1 greenhouse, postemergence; assay type: in vivo; conditions: 21 days, scale 0-100
# Description: as §4
# Convolvulus arvensis = test: Test 1 greenhouse, postemergence; assay type: in vivo; conditions: 21 days, scale 0-100
# Description: as §4
# Triticum aestivum = test: Test 1 greenhouse, postemergence; assay type: in vivo; conditions: 21 days, scale 0-100
# Description: as §4
structure (smiles),measurement,setting,value
"COC(=O)c1cccnc1S(=O)(=O)NC(=O)Nc1nc(OC)cc(OC)n1 [Compound I, 2-[[(4,6-dimethoxypyrimidin-2-yl)aminocarbonyl]aminosulfonyl]-3-pyridinecarboxylic acid, methyl ester]",Injury ratings,Sour Lemon; 8 g/ha,20
same,Injury ratings,Sour Lemon; 16 g/ha,50
same,Injury ratings,Sour Lemon; 32 g/ha,70
same,Plant Injury Rating 36 DAT,Pineapple; 16 g/ha,0
same,Plant Injury Rating 36 DAT,Pineapple; 32 g/ha,0
same,Plant Injury Rating 36 DAT,Forage fescue; 16 g/ha,100
same,Plant Injury Rating 36 DAT,Forage fescue; 32 g/ha,100
same,Plant Injury Rating 36 DAT,Bermudagrass; 16 g/ha,0
same,Plant Injury Rating 36 DAT,Bermudagrass; 32 g/ha,0
same,Plant Injury Rating 36 DAT,Purple nutsedge; 16 g/ha,50
same,Plant Injury Rating 36 DAT,Purple nutsedge; 32 g/ha,100
same,Plant Injury Rating 36 DAT,Yellow nutsedge; 16 g/ha,60
same,Plant Injury Rating 36 DAT,Yellow nutsedge; 32 g/ha,100
same,Plant Injury Rating 36 DAT,Annual ryegrass; 16 g/ha,100
same,Plant Injury Rating 36 DAT,Annual ryegrass; 32 g/ha,100
same,Plant Injury Rating 36 DAT,Climax timothy; 16 g/ha,100
same,Plant Injury Rating 36 DAT,Climax timothy; 32 g/ha,100
same,Plant Injury Rating 36 DAT,Annual bluegrass; 16 g/ha,100
same,Plant Injury Rating 36 DAT,Annual bluegrass; 32 g/ha,100
same,Plant Injury Rating 36 DAT,Bahiagrass; 16 g/ha,70
same,Plant Injury Rating 36 DAT,Bahiagrass; 32 g/ha,100
same,Plant Injury Rating 36 DAT,Galium; 16 g/ha,100
same,Plant Injury Rating 36 DAT,Galium; 32 g/ha,100
same,Plant Injury Rating 36 DAT,Perennial ryegrass; 16 g/ha,100
same,Plant Injury Rating 36 DAT,Perennial ryegrass; 32 g/ha,100
same,Plant Injury Rating 36 DAT,Kentucky fescue; 16 g/ha,100
same,Plant Injury Rating 36 DAT,Kentucky fescue; 32 g/ha,100
same,Plant Injury Rating 36 DAT,Kentucky bluegrass; 16 g/ha,100
same,Plant Injury Rating 36 DAT,Kentucky bluegrass; 32 g/ha,100
same,Plant Injury Rating 36 DAT,Large crabgrass; 16 g/ha,60
same,Plant Injury Rating 36 DAT,Large crabgrass; 32 g/ha,80
same,Injury ratings,Common ragweed,0
same,Injury ratings,Johnsongrass,100
same,visual assessment of weed control,Salsoa kali; 4 g/ha,100
same,visual assessment of weed control,Salsoa kali; 8 g/ha,100
same,visual assessment of weed control,Salsoa kali; 16 g/ha,100
same,visual assessment of weed control,Salsoa kali; 32 g/ha,100
same,visual assessment of weed control,Salsoa kali; 64 g/ha,100
same,visual assessment of weed control,Salsoa kali; 125 g/ha,100
same,visual assessment of weed control,Kochia scoparia; 4 g/ha,100
same,visual assessment of weed control,Kochia scoparia; 8 g/ha,100
same,visual assessment of weed control,Kochia scoparia; 16 g/ha,100
same,visual assessment of weed control,Kochia scoparia; 32 g/ha,100
same,visual assessment of weed control,Kochia scoparia; 64 g/ha,100
same,visual assessment of weed control,Kochia scoparia; 125 g/ha,100
same,visual assessment of weed control,Setaria viridis; 4 g/ha,90
same,visual assessment of weed control,Setaria viridis; 8 g/ha,90
same,visual assessment of weed control,Setaria viridis; 16 g/ha,100
same,visual assessment of weed control,Setaria viridis; 32 g/ha,100
same,visual assessment of weed control,Setaria viridis; 64 g/ha,100
same,visual assessment of weed control,Setaria viridis; 125 g/ha,100
same,visual assessment of weed control,Convolvulus arvensis; 4 g/ha,90
same,visual assessment of weed control,Convolvulus arvensis; 8 g/ha,100
same,visual assessment of weed control,Convolvulus arvensis; 16 g/ha,100
same,visual assessment of weed control,Convolvulus arvensis; 32 g/ha,100
same,visual assessment of weed control,Convolvulus arvensis; 64 g/ha,100
same,visual assessment of weed control,Convolvulus arvensis; 125 g/ha,100
same,visual assessment of weed control,Triticum aestivum; 4 g/ha,90
same,visual assessment of weed control,Triticum aestivum; 8 g/ha,100
same,visual assessment of weed control,Triticum aestivum; 16 g/ha,100
same,visual assessment of weed control,Triticum aestivum; 32 g/ha,100
same,visual assessment of weed control,Triticum aestivum; 64 g/ha,100
same,visual assessment of weed control,Triticum aestivum; 125 g/ha,100
